Measured values taken from PubChem BioAssay AID1259407 (Chemical Carcinogenesis Research Information System (CCRIS), 2018).
Active and inactive are the calls of the source. No rule for the calls is given here.

Tested on: CCRIS mutagenicity, Ames/micronucleus/aberration tests
Experiment: CCRIS mutagenicity studies
[1] = Test System: AMES SALMONELLA TYPHIMURIUM, Strain/Indicator: TA98, Metabolic Activation: NONE, Method: STANDARD PLATE
[2] = Test System: AMES SALMONELLA TYPHIMURIUM, Strain/Indicator: TA98, Metabolic Activation: RAT, LIVER, S-9, AROCLOR 1254, Method: STANDARD PLATE
[3] = Test System: AMES SALMONELLA TYPHIMURIUM, Strain/Indicator: TA100, Metabolic Activation: NONE, Method: STANDARD PLATE
[4] = Test System: AMES SALMONELLA TYPHIMURIUM, Strain/Indicator: TA100, Metabolic Activation: RAT, LIVER, S-9, AROCLOR 1254, Method: STANDARD PLATE
[5] = Test System: AMES SALMONELLA TYPHIMURIUM, Strain/Indicator: TA1535, Metabolic Activation: NONE, Method: STANDARD PLATE
[6] = Test System: AMES SALMONELLA TYPHIMURIUM, Strain/Indicator: TA1535, Metabolic Activation: RAT, LIVER, S-9, AROCLOR 1254, Method: STANDARD PLATE
[7] = Test System: AMES SALMONELLA TYPHIMURIUM, Strain/Indicator: TA1537, Metabolic Activation: NONE, Method: STANDARD PLATE
[8] = Test System: AMES SALMONELLA TYPHIMURIUM, Strain/Indicator: TA1537, Metabolic Activation: RAT, LIVER, S-9, AROCLOR 1254, Method: STANDARD PLATE
[9] = Test System: AMES SALMONELLA TYPHIMURIUM, Strain/Indicator: TA1538, Metabolic Activation: NONE, Method: STANDARD PLATE
[10] = Test System: AMES SALMONELLA TYPHIMURIUM, Strain/Indicator: TA1538, Metabolic Activation: RAT, LIVER, S-9, AROCLOR 1254, Method: STANDARD PLATE
[11] = Test System: AMES SALMONELLA TYPHIMURIUM, Strain/Indicator: TA102, Metabolic Activation: NONE, Method: STANDARD PLATE
[12] = Test System: AMES SALMONELLA TYPHIMURIUM, Strain/Indicator: TA102, Metabolic Activation: RAT, LIVER, S-9, AROCLOR 1254, Method: STANDARD PLATE

`Nc1ccc(S(=O)(=O)Nc2cnc3c(Cl)cccc3n2)cc1` was tested, and the mutagenic call (Test System: AMES SALMONELLA TYPHIMURIUM, Strain/Indicator: TA98, Metabolic Activation: HAMSTER, LIVER, S-9, AROCLOR 1254, Method: STANDARD PLATE) was “inactive; negative”, the mutagenic call [1] was “inactive; negative” and the mutagenic call [2] was “inactive; negative”. For the same compound, the mutagenic call (Test System: AMES SALMONELLA TYPHIMURIUM, Strain/Indicator: TA100, Metabolic Activation: HAMSTER, LIVER, S-9, AROCLOR 1254, Method: STANDARD PLATE) was “inactive; negative”, the mutagenic call [3] was “inactive; negative” and the mutagenic call [4] was “inactive; negative”. The mutagenic call (Test System: AMES SALMONELLA TYPHIMURIUM, Strain/Indicator: TA1535, Metabolic Activation: HAMSTER, LIVER, S-9, AROCLOR 1254, Method: STANDARD PLATE) was “inactive; negative”, the mutagenic call [5] was “inactive; negative” and the mutagenic call [6] was “inactive; negative”. The mutagenic call (Test System: AMES SALMONELLA TYPHIMURIUM, Strain/Indicator: TA1537, Metabolic Activation: HAMSTER, LIVER, S-9, AROCLOR 1254, Method: STANDARD PLATE) was “inactive; negative”, the mutagenic call [7] was “inactive; negative” and the mutagenic call [8] was “inactive; negative”. The mutagenic call (Test System: AMES SALMONELLA TYPHIMURIUM, Strain/Indicator: TA1538, Metabolic Activation: HAMSTER, LIVER, S-9, AROCLOR 1254, Method: STANDARD PLATE) was “inactive; negative”, the mutagenic call [9] was “inactive; negative” and the mutagenic call [10] was “inactive; negative”. The mutagenic call (Test System: MOUSE LYMPHOMA, Strain/Indicator: L5178Y (TK+/TK-), Metabolic Activation: NONE, Method: SUSPENSION/PLATE) was “inactive; negative. reevaluation of results: negative” and the mutagenic call (Test System: MOUSE LYMPHOMA, Strain/Indicator: L5178Y (TK+/TK-), Metabolic Activation: RAT, LIVER, S-9, AROCLOR 1254, Method: SUSPENSION/PLATE) was “inactive; negative. reevaluation of results: negative”.
In the case of `O=C(O)/C=C\Cl`, the mutagenic call (Test System: AMES SALMONELLA TYPHIMURIUM, Strain/Indicator: TA97, Metabolic Activation: RAT, LIVER, S-9, PCB, Method: STANDARD PLATE) is reported as “active; positive” and the mutagenic call (Test System: AMES SALMONELLA TYPHIMURIUM, Strain/Indicator: TA102, Metabolic Activation: RAT, LIVER, S-9, PCB, Method: STANDARD PLATE) is reported as “active; positive”.
In the case of `O[C@H]1C=Cc2c(ccc3cccnc23)[C@@H]1O`, the mutagenic call [4] is reported as “active; positive”.
For `CC(C)(C)c1cc(-c2ccccc2)ccc1N=O`, the mutagenic call [1] was “active; positive”, the mutagenic call (Test System: AMES SALMONELLA TYPHIMURIUM, Strain/Indicator: TA98, Metabolic Activation: S-9, Method: STANDARD PLATE) was “active; positive” and the mutagenic call [3] was “active; positive”. The mutagenic call (Test System: AMES SALMONELLA TYPHIMURIUM, Strain/Indicator: TA100, Metabolic Activation: S-9, Method: STANDARD PLATE) was “active; positive”.
`c1cc2ccc3cc4c(c5ccc(c1)c2c35)[C@H]1O[C@H]1CC4` was tested, and the mutagenic call (Test System: CHINESE HAMSTER V-79, Strain/Indicator: V-79/8-AZAGUANINE, Metabolic Activation: NONE, Method: STANDARD PLATE) was “active; positive”.
For `CCC(CCC(C)O)COC(=O)c1ccccc1C(=O)O` (stereo not given), the mutagenic call (Test System: AMES SALMONELLA TYPHIMURIUM, Strain/Indicator: TA97, Metabolic Activation: NONE, Method: STANDARD PLATE) was “inactive; negative”, the mutagenic call (Test System: AMES SALMONELLA TYPHIMURIUM, Strain/Indicator: TA97, Metabolic Activation: RAT, LIVER, S-9, AROCLOR 1254, Method: STANDARD PLATE) was “inactive; negative” and the mutagenic call (Test System: AMES SALMONELLA TYPHIMURIUM, Strain/Indicator: TA97, Metabolic Activation: RAT, LIVER, S-9, DI(2-ETHYLHEXYL)PHTHALATE, Method: STANDARD PLATE) was “inactive; negative”. For the same compound, the mutagenic call [1] was “inactive; negative”, the mutagenic call [2] was “inactive; negative” and the mutagenic call (Test System: AMES SALMONELLA TYPHIMURIUM, Strain/Indicator: TA98, Metabolic Activation: RAT, LIVER, S-9, DI(2-ETHYLHEXYL)PHTHALATE, Method: STANDARD PLATE) was “inactive; negative”. The mutagenic call [3] was “inactive; negative”, the mutagenic call [4] was “inactive; negative” and the mutagenic call (Test System: AMES SALMONELLA TYPHIMURIUM, Strain/Indicator: TA100, Metabolic Activation: RAT, LIVER, S-9, DI(2-ETHYLEXYL)PHTHALATE, Method: STANDARD PLATE) was “inactive; negative”. For the same compound, the mutagenic call [11] was “inactive; negative”, the mutagenic call [12] was “inactive; negative” and the mutagenic call (Test System: AMES SALMONELLA TYPHIMURIUM, Strain/Indicator: TA102, Metabolic Activation: RAT, LIVER, S-9, DI(2-ETHYLHEXYL)PHTHALATE, Method: STANDARD PLATE) was “inactive; negative”.
`NC(=O)c1cc(N2CC2)c([N+](=O)[O-])cc1[N+](=O)[O-]` was tested, and the mutagenic call [1] was “inactive; negative”, the mutagenic call [3] was “active; positive” and the mutagenic call (Test System: E. COLI, Strain/Indicator: NFR-343, Metabolic Activation: NONE, Method: AGAR OVERLAY) was “active; positive”. For the same compound, the mutagenic call (Test System: E. COLI, Strain/Indicator: NFR-343, Metabolic Activation: NONE, Method: STANDARD PLATE) was “active; positive”, the mutagenic call (Test System: E. COLI, Strain/Indicator: NFR-343, Metabolic Activation: RAT, LIVER, S-9, AROCLOR 1254, Method: STANDARD PLATE) was “active; positive” and the mutagenic call (Test System: E. COLI, Strain/Indicator: WP2, Metabolic Activation: NONE, Method: STANDARD PLATE) was “active; positive”. For the same compound, the mutagenic call (Test System: E. COLI, Strain/Indicator: WP2 UVRA (PKM101), Metabolic Activation: NONE, Method: STANDARD PLATE) was “active; positive”, the mutagenic call (Test System: E. COLI, Strain/Indicator: WP2 UVRA, Metabolic Activation: NONE, Method: AGAR OVERLAY) was “active; positive” and the mutagenic call (Test System: E. COLI, Strain/Indicator: WP2 UVRA, Metabolic Activation: NONE, Method: STANDARD PLATE) was “active; positive”. The mutagenic call (Test System: E. COLI, Strain/Indicator: WP2 UVRA, Metabolic Activation: RAT, LIVER, S-9, AROCLOR 1254, Method: STANDARD PLATE) was “active; positive”.
In the case of `Cc1ccc(-c2nc(-c3ccc(C)cc3C)[nH]c2-c2ccc(C)cc2)cc1`, the mutagenic call [1] is reported as “active; positive”, the mutagenic call (Test System: AMES SALMONELLA TYPHIMURIUM, Strain/Indicator: TA98, Metabolic Activation: RAT LIVER S-9, 3-METHYLCHOLANTHRENE, SODIUM PHENOBARBITAL, Method: STANDARD PLATE) is reported as “active; positive” and the mutagenic call [3] is reported as “active; positive”. The mutagenic call (Test System: AMES SALMONELLA TYPHIMURIUM, Strain/Indicator: TA100, Metabolic Activation: RAT LIVER S-9, 3-METHYLCHOLANTHRENE, SODIUM PHENOBARBITAL, Method: STANDARD PLATE) was “active; positive”.
With `[Cl][Sn]([Cl])([Cl])[Cl]` the mutagenic call (Test System: AMES SALMONELLA TYPHIMURIUM, Strain/Indicator: TA98, Metabolic Activation: NONE, Method: SUSPENSION/PLATE) was “inactive; negative” and the mutagenic call (Test System: AMES SALMONELLA TYPHIMURIUM, Strain/Indicator: TA100, Metabolic Activation: NONE, Method: SUSPENSION/PLATE) was “inactive; negative”.
`Cc1cc(N)c(C)c([N+](=O)[O-])c1N` was tested, and the mutagenic call [1] was “inactive; negative”, the mutagenic call [2] was “active; positive” and the mutagenic call [3] was “inactive; negative”. The mutagenic call [4] was “inactive; negative”, the mutagenic call [5] was “inactive; negative” and the mutagenic call [6] was “inactive; negative”. For the same compound, the mutagenic call [7] was “inactive; negative”, the mutagenic call [8] was “inactive; negative” and the mutagenic call [9] was “inactive; negative”. For the same compound, the mutagenic call [10] was “active; positive”.
With `CC(C)NCC(O)COc1cccc2c1C=CC2` (stereo not given) the mutagenic call [1] was “inactive; negative”, the mutagenic call [2] was “inactive; negative” and the mutagenic call [3] was “inactive; negative”. For the same compound, the mutagenic call [4] was “inactive; negative”, the mutagenic call [11] was “inactive; negative” and the mutagenic call [12] was “inactive; negative”.
For `CN(C)CCNC(=O)c1cccc2cc(-c3ccccc3)oc12`, the mutagenic call [7] was “active; positive”.
